In the supplement of paper PMC10307832:

How the values were obtained:
Assay in all cases: relative viability (nuclei count vs DMSO), 5 days (fraction); higher = more cells survive
Linsitinib + Crizotinib = compound: C[C@]1(O)C[C@@H](c2nc(-c3ccc4ccc(-c5ccccc5)nc4c3)c3c(N)nccn32)C1 [Linsitinib] + C[C@@H](Oc1cc(-c2cnn(C3CCNCC3)c2)cnc1N)c1c(Cl)ccc(F)c1Cl [Crizotinib] (partner 1 µM)
How it was run: (§1)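 Lung cancer cell lines in 1536-well plates were dosed by pin tool the day after seeding, either with one drug alone or with a fixed anchor-drug dose plus five library-drug doses (not always all listed) in √10 steps. After 5 days, cells were fixed and their nuclei stained in one step (final 0.05% Triton X-100, 1% formaldehyde, 1 ug/ml Hoechst), then counted on 4× images. Relative viability is the nuclei count in treated wells divided by that in vehicle wells. Values are medians of duplicate plates.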

Linsitinib + Pictilisib = compound: C[C@]1(O)C[C@@H](c2nc(-c3ccc4ccc(-c5ccccc5)nc4c3)c3c(N)nccn32)C1 [Linsitinib] + CS(=O)(=O)N1CCN(Cc2cc3nc(-c4cccc5[nH]ncc45)nc(N4CCOCC4)c3s2)CC1 [Pictilisib] (partner 1 µM)
How it was run: as §1

Ispinesib + Crizotinib = compound: Cc1ccc(C(=O)N(CCCN)[C@@H](c2nc3cc(Cl)ccc3c(=O)n2Cc2ccccc2)C(C)C)cc1 [Ispinesib] + C[C@@H](Oc1cc(-c2cnn(C3CCNCC3)c2)cnc1N)c1c(Cl)ccc(F)c1Cl [Crizotinib] (partner 1 µM)
How it was run: as §1

Ispinesib + Pemetrexed = compound: Cc1ccc(C(=O)N(CCCN)[C@@H](c2nc3cc(Cl)ccc3c(=O)n2Cc2ccccc2)C(C)C)cc1 [Ispinesib] + Nc1nc2[nH]cc(CCc3ccc(C(=O)N[C@@H](CCC(=O)O)C(=O)O)cc3)c2c(=O)[nH]1 [Pemetrexed] (partner 0.2 µM)
How it was run: as §1

| Cell Line | relative viability (Linsitinib + Crizotinib; first compound 0.01 µM) | relative viability (Linsitinib + Crizotinib; first compound 0.03162 µM) | relative viability (Linsitinib + Crizotinib; first compound 0.1 µM) | relative viability (Linsitinib + Crizotinib; first compound 0.3162 µM) | relative viability (Linsitinib + Crizotinib; first compound 1 µM) | relative viability (Linsitinib + Pictilisib; first compound 0.01 µM) | relative viability (Linsitinib + Pictilisib; first compound 0.03162 µM) | relative viability (Linsitinib + Pictilisib; first compound 0.1 µM) | relative viability (Linsitinib + Pictilisib; first compound 0.3162 µM) | relative viability (Linsitinib + Pictilisib; first compound 1 µM) | relative viability (Ispinesib + Crizotinib; first compound 0.001 µM) | relative viability (Ispinesib + Crizotinib; first compound 0.003162 µM) | relative viability (Ispinesib + Crizotinib; first compound 0.01 µM) | relative viability (Ispinesib + Crizotinib; first compound 0.03162 µM) | relative viability (Ispinesib + Crizotinib; first compound 0.1 µM) | relative viability (Ispinesib + Pemetrexed; first compound 0.001 µM) | relative viability (Ispinesib + Pemetrexed; first compound 0.003162 µM) | relative viability (Ispinesib + Pemetrexed; first compound 0.01 µM) | relative viability (Ispinesib + Pemetrexed; first compound 0.03162 µM) | relative viability (Ispinesib + Pemetrexed; first compound 0.1 µM) |
| --- | --- | --- | --- | --- | --- | --- | --- | --- | --- | --- | --- | --- | --- | --- | --- | --- | --- | --- | --- | --- |
| PC-14 | 0.837 | 0.914 | 0.916 | 0.869 | 0.794 | 0.691 | 0.701 | 0.75 | 0.598 | 0.5 | 0.967 | 0.971 | 1.07 | 0.873 | 0.232 | 0.132 | 0.139 | 0.0661 | 0.0425 | 0.0577 |
| NCI-H358 | 0.661 | 0.676 | 0.588 | 0.448 | 0.415 | 0.317 | 0.232 | 0.333 | 0.261 | 0.281 | 0.617 | 0.515 | 0.665 | 0.409 | 0.424 | 0.176 | 0.146 | 0.17 | 0.169 | 0.135 |
| NCI-H1915 | 0.944 | 0.918 | 0.936 | 0.796 | 0.754 | 0.996 | 0.943 | 0.97 | 0.726 | 0.522 | 0.972 | 0.675 | 0.926 | 0.842 | 0.432 | 0.518 | 0.528 | 0.516 | 0.294 | 0.113 |
| 201T | 1.02 | 1.03 | 1.07 | 1.11 | 1.01 | 0.706 | 0.703 | 0.688 | 0.616 | 0.534 | 1.05 | 1.09 | 1.14 | 1.04 | 1.01 | 0.308 | 0.334 | 0.328 | 0.32 | 0.264 |
| NCI-H1437 | 0.897 | 0.75 | 0.993 | 0.853 | 0.972 | 0.449 | 0.53 | 0.455 | 0.467 | 0.57 | 0.993 | 0.971 | 1.11 | 0.902 | 0.195 | 0.31 | 0.334 | 0.329 | 0.347 | 0.238 |
| A-427 | 0.872 | 0.779 | 1.04 | – | 0.726 | 0.53 | 0.594 | 0.719 | – | 0.688 | 0.886 | 1.23 | 0.968 | 0.887 | 0.369 | 1.04 | 1.13 | 1.1 | 0.48 | 0.243 |
| HCC-366 | 0.542 | 0.487 | 0.583 | 0.433 | 0.429 | 0.127 | 0.0857 | 0.0909 | – | 0.108 | 0.6 | 0.563 | 1.22 | 0.848 | 0.0887 | 0.18 | 0.189 | 0.176 | 0.153 | 0.0222 |
| BEN | 0.767 | 1.01 | 0.993 | 0.611 | 0.826 | 0.526 | 0.576 | 0.64 | 0.425 | 0.606 | 1.08 | 1.01 | 1.04 | 0.507 | 0.431 | 0.826 | 0.953 | 0.797 | 0.471 | 0.278 |
| NCI-H2347 | 0.705 | 0.84 | 0.715 | 0.589 | 0.669 | 0.802 | 0.609 | 0.597 | 0.695 | 0.717 | 0.714 | 0.833 | 0.717 | 0.544 | 0.402 | 0.47 | 0.432 | 0.433 | 0.41 | 0.425 |
| LCLC-103H | 0.991 | 0.973 | 1.01 | 0.924 | 0.932 | 0.686 | 0.566 | 0.596 | 0.718 | 0.535 | 1.08 | 1.2 | 1.08 | 0.999 | 0.929 | 0.475 | 0.474 | 0.446 | 0.449 | 0.352 |
| NCI-H650 | 0.736 | 0.907 | 0.857 | – | 0.703 | 0.875 | 0.876 | 0.953 | – | 0.814 | 0.526 | 0.669 | 0.826 | 0.595 | 0.404 | 1.1 | 1.02 | 0.933 | 0.609 | 0.238 |
| NCI-H1975 | 0.949 | 0.993 | 0.918 | 0.899 | 0.727 | 0.286 | 0.253 | 0.246 | 0.255 | 0.178 | 1.09 | 1.02 | 1.08 | 0.491 | 0.205 | 0.328 | 0.327 | 0.322 | 0.277 | 0.155 |
| NCI-H2126 | 0.972 | 1.06 | 0.988 | 0.841 | 0.903 | 0.489 | 0.486 | 0.459 | 0.389 | 0.359 | 1.03 | 1.05 | 1.09 | 1.07 | 0.923 | 0.672 | 0.669 | 0.768 | 0.647 | 0.303 |
| NCI-H2087 | 0.763 | 1.01 | 0.836 | 0.842 | 0.729 | 0.92 | 0.906 | 0.723 | 0.294 | 0.775 | 0.839 | 1 | 0.995 | 0.61 | 0.146 | 0.667 | 0.715 | 0.66 | 0.635 | 0.149 |
